Reference: patent US20260284011A1, “COMPOUNDS FOR RESTORING SUSCEPTIBILITY TO BETA-LACTAM ANTIBIOTICS” (UNIVERSITY OF NOTRE DAME DU LAC, priority 2023, published 2026)
Where two headings read alike, the source gives them in different places.

What was measured:
Experiment in all cases: MIC determination and potentiation assay (microdilution broth)
Type in all cases: cell-based
[1] = tested on: CA-263 (NRS647), MRSA, SCCmec IV, bla +; settings: Staphylococcus aureus
Experimental: (§1) MICs were determined by the microdilution broth method following the Clinical & Laboratory Standards Institute (CLSI) guidelines. […] Experiments were performed in triplicate in 96-well plates with 5×10^5 CFU·mL^−1 of bacteria. […] The MIC was the concentration for which bacterial growth was not observed.

[2] = tested on: MW2 (NRS123), MRSA, SCCmec IV, bla +; settings: Staphylococcus aureus
Experimental: as §1

[3] = tested on: HFH 30495, MRSA, SCCmec II, bla +; settings: Staphylococcus aureus
Experimental: as §1

[4] = tested on: CT-19 (NRS676), MRSA, SCCmec IV, bla +; settings: Staphylococcus aureus
Experimental: as §1

[5] = tested on: HFH 29568, MRSA, USA300 clone, SCCmec IV, bla +; settings: Staphylococcus aureus
Experimental: as §1

[6] = tested on: NY-315 (NRS715), MRSA, SCCmec II, bla +; settings: Staphylococcus aureus
Experimental: as §1

[7] = tested on: TN-124 (NRS735), MRSA, SCCmec II, bla +; settings: Staphylococcus aureus
Experimental: as §1

[8] = tested on: LinR#12 (NRS119), MRSA, SCCmec IV, bla +; settings: Staphylococcus aureus
Experimental: as §1

[9] = tested on: AIS 1000505 (VRS10), MRSA, vancomycin-resistant, SCCmec II, bla +; settings: Staphylococcus aureus
Experimental: as §1

[10] = tested on: MSSA476 (NRS72), MSSA, bla +; settings: Staphylococcus aureus
Experimental: as §1

[11] = tested on: USA300-0114 (NRS384), MRSA, SCCmec IV, bla +; settings: Staphylococcus aureus
Experimental: as §1

[12] = tested on: HT 20020320 (NRS245), MRSA, SCCmec IV, bla +; settings: Staphylococcus aureus
Experimental: as §1

[13] = tested on: HIP 07930 (NRS22), MRSA/VISA, SCCmec II, bla +; settings: Staphylococcus aureus
Experimental: as §1

[14] = tested on: H2138 (NRS271), MRSA, SCCmec IV, bla +; settings: Staphylococcus aureus
Experimental: as §1

[15] = tested on: CA-347 (NRS648), MRSA, SCCmec II, bla +; settings: Staphylococcus aureus
Experimental: as §1

[16] = tested on: FPR3757, MRSA, USA300 clone, SCCmec IV, bla +; settings: Staphylococcus aureus
Experimental: as §1

[17] = tested on: HI049, MRSA, USA300 clone, SCCmec IV, bla +; settings: Staphylococcus aureus, agent alone
Experimental: as §1

[18] = tested on: MN-082 (NRS701), MRSA, SCCmec II, bla +; settings: Staphylococcus aureus
Experimental: as §1

[19] = tested on: CO-23 (NRS661), MRSA, SCCmec II, bla +; settings: Staphylococcus aureus
Experimental: as §1

[20] = tested on: 880, MRSA, SCCmec IV, bla +
Experimental: as §1

[21] = tested on: N315 (NRS70), MRSA, SCCmec II, bla +; settings: Staphylococcus aureus
Experimental: as §1

[22] = tested on: SR4035, MRSA, SCCmec IV, bla +; settings: Staphylococcus aureus
Experimental: as §1

[23] = tested on: CM05, MRSA, SCCmec I, bla +; settings: Staphylococcus aureus
Experimental: as §1

[24] = tested on: CO-34 (NRS662), MRSA, SCCmec IV, bla +; settings: Staphylococcus aureus
Experimental: as §1

[25] = tested on: M1712 (NRS127), MRSA, SCCmec II, bla +; settings: Staphylococcus aureus
Experimental: as §1

[26] = tested on: HIP06297 (NRS17), MRSA, SCCmec II, bla +; settings: Staphylococcus aureus
Experimental: as §1

[27] = tested on: HIP13036 (NRS404), MRSA/VISA, SCCmec II, bla +; settings: Staphylococcus aureus
Experimental: as §1

[28] = CA-263 (NRS647), agent alone, read-out: MIC
[29] = MW2 (NRS123), agent alone, read-out: MIC
[30] = HFH 30495, agent alone, read-out: MIC
[31] = CT-19 (NRS676), agent alone, read-out: MIC
[32] = HFH 29568, agent alone, read-out: MIC
[33] = NY-315 (NRS715), agent alone, read-out: MIC
[34] = LinR#12 (NRS119), agent alone, read-out: MIC
[35] = AIS 1000505 (VRS10), agent alone, read-out: MIC
[36] = MSSA476 (NRS72), agent alone, read-out: MIC
[37] = USA300-0114 (NRS384), agent alone, read-out: MIC
[38] = HT 20020320 (NRS245), agent alone, read-out: MIC
[39] = HIP 07930 (NRS22), agent alone, read-out: MIC
[40] = H2138 (NRS271), agent alone, read-out: MIC
[41] = CA-347 (NRS648), agent alone, read-out: MIC
[42] = FPR3757, agent alone, read-out: MIC
[43] = MN-082 (NRS701), agent alone, read-out: MIC
[44] = CO-23 (NRS661), agent alone, read-out: MIC
[45] = Staphylococcus aureus, 880, agent alone, read-out: MIC
[46] = N315 (NRS70), agent alone, read-out: MIC
[47] = SR4035, agent alone, read-out: MIC
[48] = CO-34 (NRS662), agent alone, read-out: MIC
[49] = M1712 (NRS127), agent alone, read-out: MIC
[50] = HIP06297 (NRS17), agent alone, read-out: MIC
[51] = HIP13036 (NRS404), agent alone, read-out: MIC

Measured: MIC

CCO/N=C(\C(=O)N[C@@H]1C(=O)N2C(C(=O)[O-])=C(Sc3nc(-c4cc[n+](C)cc4)cs3)CS[C@H]12)c1nsc(N)n1 [CPT, ceftaroline]
0.25 µg/mL: [13]; [39]
2 µg/mL: [18]; [43] | [23]
0.13 µg/mL: [10]; [36]
0.5 µg/mL: [1]; [28] | [11]; [37] | [12]; [38] | [16]; [42]
1 µg/mL: [2]; [29] | [3]; [30] | [4]; [31] | [5]; [32] | [6]; [33] | [7] | [8]; [34] | [9]; [35] | [14]; [40] | [15]; [41] | [17] | [19]; [44] | [20]; [45] | [21]; [46] | [22]; [47] | [24]; [48] | [25]; [49] | [26]; [50] | [27]; [51]

N#Cc1ccc2nc(SCB(O)O)n(Cc3ccc(C(F)(F)F)cc3C(F)(F)F)c2c1 [Compound 4, (((1-(2,4-bis(trifluoro-methyl)benzyl)-6-cyano-1H-benzo[d]imidazol-2-yl)thio)methyl)boronic acid]
16 µg/mL: [1]; [28] | [2]; [29] | [3]; [30] | [4]; [31] | [5]; [32] | [6]; [33] | [7] | [8]; [34] | [9]; [35] | [11]; [37] | [12]; [38] | [13]; [39] | [14]; [40] | [15]; [41] | [16]; [42] | [17] | [18]; [43] | [20]; [45] | [21]; [46] | [22]; [47] | [24]; [48] | [25]; [49]
32 µg/mL: [10]; [36] | [19]; [44] | [23] | [26]; [50]
8 µg/mL: [27]; [51]

CO[C@@]1(NC(=O)Cc2cccs2)C(=O)N2C(C(=O)O)=C(COC(N)=O)CS[C@@H]21 [FOX, cefoxitin]
64 µg/mL: [2]; [29] | [4]; [31] | [11]; [37] | [16]; [42] | [17] | [20]; [45] | [24]; [48]
32 µg/mL: [1]; [28] | [5]; [32]
4 µg/mL: [10]; [36]
128 µg/mL: [7] | [9] | [12] | [13] | [14] | [15] | [19] | [21] | [22] | [25]
256 µg/mL: [3]; [30] | [6]; [33] | [8]; [34] | [18]; [43] | [26]; [50] | [27]; [51]
512 µg/mL: [23]

C[C@@H](O)[C@H]1C(=O)N2C(C(=O)O)=C(S[C@@H]3CN[C@H](C(=O)N(C)C)C3)[C@H](C)[C@H]12 [MEM, meropenem]
8 µg/mL: [7] | [12]; [38] | [13]; [39] | [17] | [24]; [48] | [27]; [51]
4 µg/mL: [1]; [28] | [2]; [29] | [4]; [31] | [11]; [37] | [16]; [42] | [26]; [50]
0.13 µg/mL: [10]; [36]
> 32 µg/mL: [23]
32 µg/mL: [3]; [30] | [6]; [33] | [8]; [34] | [9]; [35] | [18]; [43] | [19]; [44]
16 µg/mL: [5]; [32] | [14]; [40] | [15]; [41] | [20]; [45] | [21]; [46] | [22]; [47] | [25]; [49]

Cc1onc(-c2ccccc2)c1C(=O)N[C@@H]1C(=O)N2[C@@H]1SC(C)(C)[C@@H]2C(=O)O [OXA, oxacillin]
512 µg/mL: [3] | [8] | [18] | [23]
2 µg/mL: [26]
256 µg/mL: [4] | [6] | [7] | [9] | [14] | [15] | [19] | [20]; Staphylococcus aureus | [25] | [27]
0.5 µg/mL: [10]
64 µg/mL: [1] | [2] | [5] | [12] | [13] | [16] | [24]
128 µg/mL: [11] | [22]
